According to US11485728B2, “Small molecules for the treatment of autoimmune diseases and cancer” (Athos Therapeutics, Inc., priority 2020, dated 2022):

Columns and labels:
[1] = tested on: HCT-116; test: HCT-116 cell viability (Real-Time-Glo); format: cell-based; details: Homo sapiens, 72 hr, read-out: IC50, Cell line: HCT-116
Description: (§1) To determine the plating density for cell viability assays, for each cell line, cells were counted and diluted to final densities of 2.5, 5, 10 and 20 thousand per 100 μl of their respective growth media per well in 96 well plates. A Promega Real-Time-Glo cell viability kit was used to determine the optimal concentration for cell plating so that each cell line would be within the linear part of its growth curve after 72 hrs in culture. […] Test compounds were then added at different concentrations for the creation of six-point curve and cell density was determined using the Promega Real-Time-Glo cell viability kit after 24, 48, and 72 hrs in culture.

[2] = tested on: C57BL/6 mice with DSS colitis; test: DSS colitis in C57BL/6 mice; format: in vivo; details: 25 mg/kg PO daily; day twelve
Description: Dextran sodium sulfate (DSS) was added to the water 24 hrs after compound administration and weight was measured daily.
C57BL/6 mice (20-22 grams) were fed ad lib and assigned to 4 different groups (n=8/group). […] A control group received vehicle alone. After 24 hrs, mice were weighed and DSS was added to their drinking water. Mice were then treated with the test compounds and weighed daily and the DSS water was replenished every 72 hrs for 5 days, at which point, it was replaced by regular drinking water. Mice were sacrificed on day twelve and clinical scored was assessed. Intestinal tissue for and blood were also collected. Tissues were either flash frozen and kept in −80° C. for RNA and protein isolation or placed in 10% formalin solution for future histological analysis. Blood was spun at 5K rpm for 5 min and serum was collected and kept at −20° C. for multiplex cytokine analysis.
DSS colitis mouse model: C57BL/6 mice (20-22 grains) are fed ad lib and assigned to different groups (n=8/group). […] A control group receives vehicle alone. After 24 h, mice are weighed and DSS is added to their drinking water. Mice are then treated with the test compounds and weighed daily and the DSS water is replenished every 72 liars for 5 days, at which point, it is replaced by regular drinking water. Mice are sacrificed on day twelve and clinical scored was assessed. Intestinal tissue for and blood are also collected. Tissues are either flash frozen and kept in −80° C. for RNA and protein isolation or placed in 10% formalin solution for future histological analysis.

[3] = tested on: 5637; test: 5637 bladder cancer cell viability (Real-Time-Glo); format: cell-based; details: 72 hr; read-out: IC50, Cell line: 5637
Description: (§2) To determine the plating density for cell viability assays, for each cell line, cells were counted and diluted to final densities of 2.5, 5, 10 and 20 thousand per 100 μl of their respective growth media per well in 96 well plates. A Promega Real-Time-Glo cell viability kit was used to determine the optimal concentration for cell plating so that each cell line would be within the linear part of its growth curve after 72 hrs in culture. For the determination of test compound IC50s different cancer cell lines were plated in 96 well plates in the pre-determined optimal density for each cell line. Test compounds were then added at different concentrations for the creation of six-point curve and cell density was determined using the Promega Real-Time-Glo cell viability kit after 24, 48, and 72 hrs in culture. Test compound 72 hr IC50s were calculated using the AAT Bioquest IC50 calculator.
The following compounds are evaluated for their ability to block cancer cell growth in colon (HT-29), liver (HepG2), pancreatic (MiaPaca-2) and bladder (5637) cancer cell lines. Specifically, the Promega Real-Time-Glo cell viability kit was used to determine the optimal concentration for cell plating so that each cell line would be within the linear part of its growth curve after 72 hrs in culture. For the determination of test compound IC50s different cancer cell lines are plated in 96 well plates in the pre-determined optimal density for each cell line. Test compounds are then added at different concentrations for the creation of six-point curve and cell density is determined using the Promega Real-Time-Glo cell viability kit after 24, 48, and 72 hrs in culture. Test compound 72 hr IC50s is calculated using the AAT Bioquest IC50 calculator.

[4] = tested on: HT-29 colorectal cancer cells; test: HT-29 cell viability (Real-Time-Glo); format: cell-based; details: Homo sapiens, HT-29; 72 hr; read-out: IC50, Cell line: HT-29
Description: Equal volume of 2× RealTime-Glo™ reagent (2 μl of MT Cell Viability Substrate 1,000×, and 2 μl of NanoLuc® Enzyme 1,000×, per 1 ml of media, Promega) was added to each well and cells were incubated at 37° C. Luminescence was evaluated at 72 h.
as §1
Specifically, the Promega Real-Time-Glo cell viability kit was used to determine the optimal concentration for cell plating so that each cell line would be within the linear part of its growth curve after 72 hrs in culture. […] Test compounds are then added at different concentrations for the creation of six-point curve and cell density is determined using the Promega Real-Time-Glo cell viability kit after 24, 48, and 72 hrs in culture. […]

[5] = tested on: A-498; test: A-498 kidney cancer cell viability (Real-Time-Glo); format: cell-based; details: Homo sapiens, A498; 72 hr; read-out: IC50, Cell line: A-498
Description: as §2

- IC50 [1]: 1 to 5 µM
- IC50 [3]: 1 to 5 µM
- IC50 [4]: 1 to 5 µM
- IC50 [5]: 1 to 5 µM
SMILES: COc1cc2c(Nc3ccncc3)nc(N3CCC(F)(F)CC3)nc2cc1OCCCN1CCCC1 [Compound 7, 2-(4,4-difluoropiperidin-1-yl)-6-methoxy-N-(pyridin-4-yl)-7-(3-(pyrrolidin-1-yl)propoxy)quinazolin-4-amine]
- DSS Efficacy [2]: −
